# Experimental data taken from PMC9587021, “Construction of a bioluminescence-based assay for bitter taste receptors (TAS2Rs)” (Scientific Reports, 2022).
# Read-outs that look alike come from different tables or passages of the source.
# Columns and labels:
# Test in all cases: cell-based
# [1] = target: T1, TAS2R39 (Homo sapiens, UniProt P59534); design: bioluminescence intracellular calcium release assay, mt-clytin II with coelenterazine, Gα16-gust44 co-expressed
# T1 sequence (P59534 1-338): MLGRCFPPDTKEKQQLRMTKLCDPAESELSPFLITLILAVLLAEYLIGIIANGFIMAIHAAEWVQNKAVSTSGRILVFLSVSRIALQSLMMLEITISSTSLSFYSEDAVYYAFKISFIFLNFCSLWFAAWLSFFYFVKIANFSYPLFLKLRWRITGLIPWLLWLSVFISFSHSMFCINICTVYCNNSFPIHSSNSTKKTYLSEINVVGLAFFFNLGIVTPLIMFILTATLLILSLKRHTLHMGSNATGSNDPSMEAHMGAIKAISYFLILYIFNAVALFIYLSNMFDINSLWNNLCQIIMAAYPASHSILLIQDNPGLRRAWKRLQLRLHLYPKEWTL
# Experimental: (§1) The bioluminescence-based assay was used to characterize the functional properties of various human TAS2Rs. For each TAS2R, one or more of its cognate agonists were tested against either the AD-293 or 293AD cell line, or both. Both cell lines were used because of their stronger adherent properties, which facilitate media changes on the day of the FLIPR assay. However, because both cell lines are generated differently, some disparities in gene expression capacities due to a myriad of factors could be reasonably expected. Consequently, some TAS2Rs may be well expressed in one cell line but not the other, and the ability of each cell line to express a particular TAS2R needs to be empirically evaluated. […] However, deviations between our experimental and published potency values for some ligands (i.e. TAS2R4: stevioside; TAS2R7: Mg^2+, Mn^2+, Zn^2+) were observed, which could be attributed to the use of a different assay format, readout and processing parameters, use of different cell lines with resultant potential differences in TAS2R expression levels, and quality and methodological differences in ligand preparations. Because potency values could be obtained that were consistent with the literature, or close to the reported minimal effective stimulatory concentration upon further testing of other TAS2R4/7 agonists, the deviation in EC50 values could be largely attributed to qualitative differences in the ligands (Supplementary Fig. S3). Calcium responses induced by the tested cognate agonists reflected specific TAS2R stimulation. […] Poor localization of TAS2Rs to the cell surface in heterologous systems was associated with diminished receptor signaling output and functionality. One of the more commonly used strategies to enhance the density of TAS2Rs at the cell surface involves fusing an N-terminal signal sequence of either the SST3, or Rho receptor to the TAS2R[24]. We adopted this approach, specifically co-expressing SST3-TAS2R with Gα16-gust44 chimera and mt-clytin II, to develop and validate a bioluminescence-based TAS2R intracellular calcium release assay. A strength of the bioluminescence-based TAS2R assay is its capacity to generate greater assay spans than that of fluorescence-based assays, which could be largely attributed to the utilization of mt-clytin II as the calcium reporter. Calcium-binding photoproteins in general are useful reporters for studying calcium-mediated signaling processes. […] Its fast calcium binding and dissociation kinetics render it a suitable indicator to report on swift, transient changes in calcium ion concentrations and study rapid receptor-ligand interactions. Mitochondrial targeting of clytin II was crucial to generating higher luminescence intensity than that of cytosol-localized clytin II, as inositol 1,4,5-triphosphate (IP3)-induced calcium release from the ER subsequent to ligand activation is thought to result in the formation of ER-proximal, calcium-rich microdomains that enabled the closely apposed mitochondria to sense a higher initial rise in calcium concentration than would be experienced by the bulk cytosol.
# [2] = target: T2, TAS2R5 (Homo sapiens, UniProt Q9NYW4); design: bioluminescence intracellular calcium release assay, mt-clytin II with coelenterazine, Gα16-gust44 co-expressed; details: 293AD cells
# T2 sequence (Q9NYW4 1-299): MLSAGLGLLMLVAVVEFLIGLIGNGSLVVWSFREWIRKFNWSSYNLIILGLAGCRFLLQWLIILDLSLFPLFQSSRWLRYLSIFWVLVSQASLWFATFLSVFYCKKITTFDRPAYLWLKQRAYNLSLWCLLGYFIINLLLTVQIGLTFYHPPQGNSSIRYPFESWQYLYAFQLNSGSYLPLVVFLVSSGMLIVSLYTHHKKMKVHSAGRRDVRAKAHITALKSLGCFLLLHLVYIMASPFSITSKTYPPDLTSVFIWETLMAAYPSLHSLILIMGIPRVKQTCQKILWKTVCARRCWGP
# Experimental: as §1
# [3] = target: T3, TAS2R46 (Homo sapiens, UniProt P59540); design: species or system AD-293; bioluminescence intracellular calcium release assay, mt-clytin II with coelenterazine, Gα16-gust44 co-expressed
# T3 sequence (P59540 1-309): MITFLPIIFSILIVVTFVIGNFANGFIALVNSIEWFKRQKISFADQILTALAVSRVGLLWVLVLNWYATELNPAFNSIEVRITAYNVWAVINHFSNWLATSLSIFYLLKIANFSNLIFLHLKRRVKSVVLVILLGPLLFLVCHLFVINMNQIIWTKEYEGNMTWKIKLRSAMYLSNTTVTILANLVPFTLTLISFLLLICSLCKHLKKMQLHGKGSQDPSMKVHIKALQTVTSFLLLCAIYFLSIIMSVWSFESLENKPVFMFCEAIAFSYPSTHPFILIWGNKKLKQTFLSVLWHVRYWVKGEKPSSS
# Experimental: (§2) The bioluminescence-based assay was used to characterize the functional properties of various human TAS2Rs. For each TAS2R, one or more of its cognate agonists were tested against either the AD-293 or 293AD cell line, or both. Both cell lines were used because of their stronger adherent properties, which facilitate media changes on the day of the FLIPR assay. However, because both cell lines are generated differently, some disparities in gene expression capacities due to a myriad of factors could be reasonably expected. Consequently, some TAS2Rs may be well expressed in one cell line but not the other, and the ability of each cell line to express a particular TAS2R needs to be empirically evaluated. […] However, deviations between our experimental and published potency values for some ligands (i.e. TAS2R4: stevioside; TAS2R7: Mg^2+, Mn^2+, Zn^2+) were observed, which could be attributed to the use of a different assay format, readout and processing parameters, use of different cell lines with resultant potential differences in TAS2R expression levels, and quality and methodological differences in ligand preparations. […] A strength of the bioluminescence-based TAS2R assay is its capacity to generate greater assay spans than that of fluorescence-based assays, which could be largely attributed to the utilization of mt-clytin II as the calcium reporter. […]
# [4] = target: T3, TAS2R46; design: species or system 293AD; bioluminescence intracellular calcium release assay, mt-clytin II with coelenterazine, Gα16-gust44 co-expressed
# Experimental: as §2
structure (smiles),measurement,setting,value
O=C(O[C@@H]1Cc2c(O)cc(O)cc2O[C@@H]1c1cc(O)c(O)c(O)c1)c1cc(O)c(O)c(O)c1 [Epigallocatechin gallate],EC50,[1]; 293AD cells,141 ± 44 µM
same,EC50,[1]; AD-293 cells,362 ± 81 µM
same,EC50,[2],47 ± 11 µM
O=C1C[C@@H]2OCC=C3CN4CC[C@]56c7ccccc7N1[C@H]5[C@H]2[C@H]3C[C@H]46 [Strychnine],EC50,[3],1.2 µM
same,EC50,[4],0.309 ± 0.073 µM
